Legend:
NLRP3 inflammasome = NLRP3 inflammasome (Homo sapiens, UniProt Q96P20); assay: NLRP3 inflammasome activation in THP1 macrophages (LPS priming, nigericin), IL-1β AlphaLISA; format: cell-based; conditions: PMA-differentiated THP1, LPS 20 ng/ml 3 hrs, compound 1 hr, Nigericin 6.7 uM 3 hrs, supernatant
IL-6 = IL-6 release from LPS-primed, nigericin-treated THP1 macrophages, Hu IL-6 AlphaLISA; format: cell-based; conditions: Homo sapiens, THP-1; PMA-differentiated THP1, LPS 20 ng/ml 3 hrs, compound 1 hr, Nigericin 6.7 uM 3 hrs, supernatant

NLRP3 inflammasome, sequence (Q96P20 whole entry): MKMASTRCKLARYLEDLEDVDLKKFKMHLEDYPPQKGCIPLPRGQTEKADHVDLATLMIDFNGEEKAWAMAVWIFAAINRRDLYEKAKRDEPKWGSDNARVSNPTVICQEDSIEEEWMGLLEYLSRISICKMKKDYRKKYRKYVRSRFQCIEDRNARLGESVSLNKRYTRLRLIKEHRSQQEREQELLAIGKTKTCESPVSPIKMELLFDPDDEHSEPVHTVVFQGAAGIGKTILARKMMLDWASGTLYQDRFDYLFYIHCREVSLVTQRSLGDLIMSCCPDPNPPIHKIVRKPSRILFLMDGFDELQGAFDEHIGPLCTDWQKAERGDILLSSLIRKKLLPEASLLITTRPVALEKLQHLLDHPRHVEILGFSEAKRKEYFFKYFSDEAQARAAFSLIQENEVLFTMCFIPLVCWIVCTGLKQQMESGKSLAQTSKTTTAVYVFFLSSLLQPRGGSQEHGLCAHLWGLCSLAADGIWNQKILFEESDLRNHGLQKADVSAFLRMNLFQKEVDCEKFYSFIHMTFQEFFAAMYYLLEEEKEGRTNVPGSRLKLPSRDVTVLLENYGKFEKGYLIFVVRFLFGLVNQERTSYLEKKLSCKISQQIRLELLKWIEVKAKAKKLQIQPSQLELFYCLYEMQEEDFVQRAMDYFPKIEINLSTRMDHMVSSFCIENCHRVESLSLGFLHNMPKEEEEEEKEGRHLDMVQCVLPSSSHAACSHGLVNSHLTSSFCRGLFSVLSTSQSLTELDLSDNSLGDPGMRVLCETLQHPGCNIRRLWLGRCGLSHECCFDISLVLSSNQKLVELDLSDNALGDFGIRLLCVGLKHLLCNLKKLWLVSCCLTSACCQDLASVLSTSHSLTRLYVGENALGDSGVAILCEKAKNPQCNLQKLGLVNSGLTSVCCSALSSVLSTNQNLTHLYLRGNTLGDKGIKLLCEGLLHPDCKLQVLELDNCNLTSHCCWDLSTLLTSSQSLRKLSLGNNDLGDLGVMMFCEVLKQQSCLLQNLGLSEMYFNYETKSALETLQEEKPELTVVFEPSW

Compound | IC50 (NLRP3 inflammasome) [µM] | IC50 (IL-6) [µM]
Cc1cc(-c2ccc(C3CC3)cc2)nnc1N[C@@H]1CCCN(C)C1 [compound 94] | > 1 | > 10
Cc1cc(Cl)ccc1-c1ccc(N[C@@H]2CCCN(C)C2)nn1 [compound 125] | 0.05 to 0.1 | > 10
Cc1cc(-c2cccc(C#N)c2)nnc1N[C@@H]1CCCN(C)C1 [compound 51] | > 1 | > 10
Cc1cc(N[C@@H]2CCCN(C)C2)nnc1-c1ccc(F)cc1C(F)F [compound 203] | 0.01 to 0.05 | > 10
COc1ccc(-c2cc(C)c(N[C@@H]3CCCN(C)C3)nn2)cc1 [compound 58] | > 1 | > 10
Cc1cc(-c2ccc(Cl)cc2F)nnc1N[C@@H]1CCCN(C)C1 [compound 149] | 0.1 to 0.5 | 5 to 10
Cc1cc(-c2ccc(N[C@@H]3CCCN(C)C3)nn2)cc(C)c1F [compound 106] | > 1 | > 10
Cc1cc(F)ccc1-c1cc(F)c(N[C@@H]2CCCN(C)C2)nn1 [compound 154] | 0.1 to 0.5 | > 10
Cc1cc(Cl)ccc1-c1nnc(N[C@@H]2CCCN(C(C)C)C2)cc1C [compound 200] | ≤ 0.01 | > 10
Cc1cc(N[C@@H]2CCCN(C)C2)nnc1-c1ccc(Cl)cc1C#N [compound 168] | 0.01 to 0.05 | 5 to 10
Cc1cc(-c2ccc(F)cc2F)nnc1N[C@@H]1CCCN(C)C1 [compound 98] | > 1 | > 10
Cc1cc(N[C@@H]2CCCN(C)C2)nnc1-c1ccc(Cl)cc1F [compound 153] | > 1 | 5 to 10
Cc1cc(-c2cccc(F)c2)nnc1N[C@@H]1CCCN(C)C1 [compound 56] | > 1 | > 10
CN1CCC[C@@H](Nc2ccc(-c3ccc(Cl)cc3)nn2)C1 [compound 129] | 0.05 to 0.1 | > 10
Cc1cc(N[C@@H]2CCCN(C)C2)nnc1-c1ccc(Cl)cc1Cl [compound 171] | ≤ 0.01 | > 10
Cc1cc(Cl)ccc1-c1nnc(O[C@@H]2CCCN(C)C2)cc1C [compound 181] | 0.5 to 1 | ≤ 1
Cc1cc(-c2ccc(F)c(C#N)c2)nnc1N[C@@H]1CCCN(C)C1 [compound 109] | > 1 | > 10
Cc1cc(N[C@@H]2CCCN(C)C2)nnc1-c1ccc(Cl)cc1C(F)F [compound 174] | ≤ 0.01 | 5 to 10
Cc1cc(-c2ccc(Cl)cc2)nnc1N[C@@H]1CCCN(C)C1 [compound 128] | 0.1 to 0.5 | > 10
Cc1cc(-c2ccc(Cl)cc2C(F)F)nnc1N[C@@H]1CCCN(C)C1 [compound 175] | ≤ 0.01 | > 10
Cc1cc(N[C@@H]2CCCN(C)C2)nnc1-c1ccccc1C(F)F [compound 159] | 0.5 to 1 | 5 to 10
Cc1cc(N[C@@H]2CCCN(C)C2)nnc1-c1ccc(Cl)c(F)c1 [compound 145] | 0.05 to 0.1 | > 10

More lines, now with the values ahead:

IC50 (NLRP3 inflammasome) [µM] | IC50 (IL-6) [µM] | Compound
≤ 0.01 | > 10 | CCN1CCC[C@@H](Nc2cc(C)c(-c3ccc(Cl)cc3)nn2)C1 [compound 155]
0.5 to 1 | > 10 | COc1cc(C(F)(F)F)ccc1-c1cc(C)c(N[C@@H]2CCCN(C)C2)nn1 [compound 35]
> 1 | 1 to 5 | Cc1cc(-c2ccc(C(F)(F)F)cc2)nnc1O[C@@H]1CCCN(C)C1 [compound 178]
0.1 to 0.5 | > 10 | CN1CCC[C@@H](Nc2nnc(-c3ccc(C(F)(F)F)cc3)cc2Cl)C1 [compound 41]
> 1 | > 10 | Cc1cc(-c2ccc(F)cc2)nnc1O[C@@H]1CCCN(C)C1 [compound 180]
> 1 | > 10 | Cc1cc(O[C@@H]2CCCN(C)C2)nnc1-c1ccc(F)cc1 [compound 179]
0.01 to 0.05 | 1 to 5 | Cc1ccc(-c2nnc(N[C@@H]3CCCN(C)C3)cc2C)cc1 [compound 11]
0.01 to 0.05 | > 10 | CCN1CCC[C@@H](Nc2cc(C(F)(F)F)c(-c3ccc(F)cc3)nn2)C1 [compound 195]
> 1 | > 10 | Cc1cc(C(F)(F)F)c(C)cc1-c1ccc(N[C@@H]2CCCN(C)C2)nn1 [compound 141]
≤ 0.01 | 5 to 10 | Cc1cc(N(C2CC2)[C@@H]2CCCN(C)C2)nnc1-c1ccc(C(F)(F)F)cc1 [compound 193]
0.05 to 0.1 | 5 to 10 | Cc1ccc(-c2nnc(N[C@@H]3CCCN(C)C3)cc2C(F)(F)F)cc1 [compound 13]
0.5 to 1 | 5 to 10 | Cc1cc(C(F)(F)F)cc(C)c1-c1ccc(N[C@@H]2CCCN(C)C2)nn1 [compound 42]
> 1 | > 10 | COc1cc(N[C@@H]2CCCN(C)C2)nnc1-c1ccc(C(F)(F)F)cc1 [compound 101]
0.1 to 0.5 | > 10 | Cc1cc(O[C@@H]2CCCN(C)C2)nnc1-c1ccc(C(F)(F)F)cc1 [compound 177, (R)-4-methyl-6-((1-methylpiperidin-3-yl)oxy)-3-(4-(trifluoromethyl)phenyl)pyridazine]
> 1 | > 10 | Cc1cc(-c2ccc(C(F)(F)F)c(Cl)c2)nnc1N[C@@H]1CCCN(C)C1 [compound 105]
0.1 to 0.5 | > 10 | CCN(c1cc(C)c(-c2ccc(C(F)(F)F)cc2)nn1)[C@@H]1CCCN(C)C1 [compound 167]
0.1 to 0.5 | 1 to 5 | Cc1cc(N(C)[C@@H]2CCCN(C)C2)nnc1-c1ccc(C(F)(F)F)cc1 [compound 142, (R)—N,5-dimethyl-N-(1-methylpiperidin-3-yl)-6-(4-(trifluoromethyl)phenyl)pyridazin-3-amine]
≤ 0.01 | > 10 | Cc1cc(N[C@@H]2CCCN(CC3CC3)C2)nnc1-c1ccc(C(F)(F)F)cc1 [compound 66]
> 1 | 5 to 10 | Cc1cc(N(C)[C@@H]2CCN(C)C2)nnc1-c1ccc(F)cc1 [compound 184]
0.01 to 0.05 | 1 to 5 | Cc1cc(C(F)(F)F)ccc1-c1nnc(N[C@@H]2CCCN(C)C2)cc1C [compound 9]
> 1 | > 10 | Cc1cc(N[C@@H]2CCCN(CC(F)F)C2)nnc1-c1ccc(F)cc1 [compound 116]
0.05 to 0.1 | > 10 | CN1CCC[C@@H](Nc2cc(C#N)c(-c3ccc(C(F)(F)F)cc3)nn2)C1 [compound 59]
0.05 to 0.1 | > 10 | Cc1cc(N[C@@H]2CCCNC2)nnc1-c1ccc(C(F)(F)F)cc1 [compound 22]
0.1 to 0.5 | 5 to 10 | Cc1cc(C(F)(F)F)ccc1-c1cc(O)c(N[C@@H]2CCCN(C)C2)nn1 [compound 158]
> 1 | > 10 | Cc1cc(N[C@@H]2CCCN(C)C2)nnc1-c1cccc(C(F)(F)F)c1 [compound 46]
0.1 to 0.5 | > 10 | Cc1cc(N[C@@H]2CCCN(C)C2)nnc1-c1ccc(C#N)cc1 [compound 31]
0.01 to 0.05 | > 10 | CCN1CCC[C@@H](Nc2cc(C)c(-c3ccc(F)cc3)nn2)C1 [compound 122]
> 1 | > 10 | COc1cc(N[C@@H]2CCCN(C)C2)nnc1-c1ccc(C(F)(F)F)cc1C [compound 172]
> 1 | > 10 | Cc1cc(-c2ccc(C(F)(F)F)cc2)nnc1N[C@H]1CN(C)CC[C@H]1F [compound 88]

Reference: US20250074888A1, “PYRIDAZINE DERIVATIVES AS MODULATORS OF NLRP3 INFLAMMASOME AND RELATED METHODS” (Neumora Therapeutics, Inc., priority 2021, published 2025)
